Data reported in article PMC12851007 (Angewandte Chemie (International Ed. in English), 2025).
Where a SMILES comes first, the peptide text is derived from it.

Key:
[1] = Dual-channel assay, CX4/LCG channel, POPC vesicles; type: in vitro ADME; settings: 175 mM glucose; for EC50: 12.5 µM POPC⸧CX4/LCG-LUVs and 12.5 µM POPC⸧CF-LUVs in 10 mM Hepes, pH 7.5, 25 °C, λexc 369/λem 475 nm, error = SD of fit, n = 1; for membrane activity in the CX4/LCG channel compared with the CF channel: dual-channel, seven independent POPC LUV batches (n = 7), penetratin 15 µM, Pep-1 10 µM, LRLLRW 30 µM, TP10 0.15 µM, 10 mM Hepes, pH 7.5, t-test/ANOVA p < 0.001, melittin: Figure S35 and Table S9
Excerpt: With the established identical extravesicular conditions in both assays, we further envisaged a simultaneous measurement of both assays within the same solution to enhance the comparability of the measurements. This became possible after optimization of the excitation and emission wavelengths. […] A further optimization was required, because the dye concentrations in the CF assay and the CX4/LCG assay are largely different.^[ [51], [52] ^] Consequently, simultaneous monitoring requires the detection of a low amount of LCG in the presence of a high concentration of the much more brightly fluorescent CF, which challenges the dynamic range of a typical fluorescence spectrometer in a dual‐channel measurement. To reduce the fluorescence read‐out of CF, the excitation wavelength was shifted from the absorption maximum at ca. 490 nm to 525 nm, where CF has a much lower absorbance, and the emission in the CF channel was shifted from its maximum at ca. 515 nm to 545 nm to further reduce the fluorescence of CF. To maintain a high LCG fluorescence, excitation was performed at the absorption maximum at 369 nm. Since CF has a residual absorbance at this excitation wavelength, emission in the LCG channel was monitored at 475 nm instead of 502 nm to eliminate spill‐over of CF fluorescence into the LCG channel. […]
Time-dep endent fluores cence intensit y traces, I (t), were subsequentl y normalized to fractional intensities, If(t), using equation (1) and the concentration- dependent fractional intensities just before the addition of th e calibration co cktail, I f, w ere then normaliz ed to fr actional membran e activities, Y, using equation (2). The fractional membrane activities, Y, were subsequently plotted against the peptide concentration, c, and anal ysed using the Hill equation (3) to obtain the effective molar concentration, EC 50, and the Hill coefficient, n. For peptides with too low activity to determine Y max ex perimentall y, Y max was fixed at 1.0 during fitting. […]
Dual-Channel Measurements
Vesicles w ere prep ared a s described abov e (se e en try (4) in Table S2 and entry (3) in Table S3) and eluted with freshl y prepared 10 mM Hepes, 175mM glucos e, pH 7.5 i n the size exclusion chromatograph y. For the measurements, an approp riate volume o f the liposome stock solutions was diluted to 2m L in a 10× 10 mm PS cuvette wi th 10 mM Hep es bu ffer and 175 mM glucos e at pH 7.5 to afford 12.5µM POPC ⊃CX4/LCG-LUVs and 12.5 µM POPC⊃CF-LUVs (25 µM POPC total). The cuvette was placed into a thermostatted fluorimeter sample holder at 25.0 °C and gentl y stirred at 300 rpm. The fluorescence intensity w as simultaneous l y r eco rded in the CF chann el ( λ exc = 525 nm, λ em = 545 nm) and in the LCG channel ( λ exc = 369 nm, λ em = 475 nm) with an ex citation slit width of 5 nm and an emission slit width of 5 n m during addition of 20 µL peptide stock solution of varying concentrations at 60 s and 20 µL of a calibration

[2] = CX4/LCG supramolecular tandem membrane assay, POPC vesicles; type: in vitro ADME; settings: n = 1; for EC50: pH 7.5, error = SD of fit; for Y30µM, membrane activity, CX4/LCG assay: 30 µM peptide, 25 µM POPC⸧CX4/LCG-LUVs (inside 700 µM CX4, 500 µM LCG) in 10 mM Hepes, pH 7.0, 25 °C, fluorescence λexc 369/λem 502 nm, peptide at 60 s, TX-100/protamine at 600 s, fractional activity
Description: Membrane Activity M easurements
Vesicle preparation. 100 µ L of a solution of 25 mg/ml of POPC in chloroform or 200 µ L of a solution of 25 mg/ml of EYPC in chloroform was purged with nitrogen and dried overnight under hi gh vacuum. The thin lipid film was rehydrated with 1 ml reh ydrati on buffer (= inside buffer, see Tabl e S2 ) b y agitation at room temperature for 30min and then subjected to 2 0 freeze- th aw c ycles (freezing in liquid nitro gen and thawing at 40 °C). […]
Ta b l e S 2. Combinations of lipids and inside and outside buffer for CX4/LCG -LUVs.
No. Lipid Inside buffer = rehydration buffer Outside buffer
(4) POPC 10 mM Hepes, 700 µM CX4, 500 µM LCG, 10 mM Hepes buffer, 175 mM glucose, pH 7.5 [a] 175 mM glucose, pH 7.5 [a]
[a] Glucose b uffers (183 mOsm/L at 25 °C) were used within one week after preparation.
Vesicle quality control. T o ensure the absence of the CX4/ LCG reporter pair in the ex travesicular ph ase, 20 µL of the collected liposome fr action w as diluted to 2 ml with outside buffer and the fluor escen ce (λ exc = 369 nm; λ em = 502 nm) was recorded during the addition of […]
The final lipid content in the liposome suspension after p repa rat ion and separ ation was d etermined b y NMR as p reviousl y reported. Assay protocol. An appropriate volume of the liposome stock solutions was diluted to 2m L with outside buffer in a 10 ×10 mm quartz glass cuvette to afford a phospholipid concentration of 25 µM. The cuvette was placed into a thermostatted fluorimeter sample holder at 25.0 °C and gentl y stirred at 300 rpm. Subsequently, the time-dependent change in fluorescence intensity (λ exc = 369 nm; λ em = 502 nm) was record ed during addition of 20 µ L of peptide stock solutions of varying concentrations at 60 s. At 600 s, 20µ L o f a solution containing 1.6% (wt/vol) TX-100 and 1.5 mM protamine was added for calibration to affo rd 0.016% (wt/vol) TX-100 and 15 µM protamine final concent rations.
Time-dep endent fluores cence intensit y traces, I (t), were subsequentl y normalized to fractional intensities, If(t), using equation (1). Therein, I 0 is the intensity just before addition of peptide and I ∞ is the constant intensit y after addition of the calibration cockt ail.
IIf (tt ) = II (tt )−II0II∞ − II0 (1)
The concentration-dependent fractional intensities just before the addition of the calibration cocktail, If, were then normalized to fractional membrane activities, Y, using equation (2).
Therein, If,0 is the fractional intensit y just before addition of the calibration cocktail in absence of peptide and I f,∞ is the constant fractional intensity after addition of the calibration cocktail.
YY = IIf − IIf,0IIf,∞ − IIf,0 (2)
The fractional membrane activities, Y, were subsequently plotted against the peptide concentration, c, and analysed using the Hill equation (3) to obtain the effective molar concentration, EC50, and the Hill coefficient, n. Y0 and Y ma x are the fractional membrane activities in absen ce o f p eptide and at max imal peptide concent rations. For peptides with too little activity to determine Y ma x ex perimentall y, Y max was fixed at 1.0 during fitting. […]

[3] = 25 µM lipid, POPC⊃CX4/LCG-LUVs, 10 mM Hepes, fractional activity at 590 s, Hill fit, read-out: EC50, CX4/LCG assay, POPC
[4] = single-channel, 25 µM POPC⸧CX4/LCG-LUVs, inside 10 mM Hepes, 700 µM CX4, 500 µM LCG, 175 mM glucose, outside 10 mM Hepes, 175 mM glucose, read-out: EC50, CX4/LCG assay in glucose-containing buffer

SMILES | EC50 [1] [µM] | membrane activity in the CX4/LCG channel compared with the CF channel [1] | EC50 [2, 3] [µM] | Y30µM, membrane activity, CX4/LCG assay [2] | EC50 [2, 4] [µM]
CC[C@H](C)[C@H](NC(=O)[C@H](CCCCN)NC(=O)[C@@H](NC(=O)[C@@H](N)CCC(N)=O)[C@@H](C)CC)C(=O)N[C@@H](Cc1c[nH]c2ccccc12)C(=O)N[C@@H](Cc1ccccc1)C(=O)N[C@@H](CCC(N)=O)C(=O)N[C@@H](CC(N)=O)C(=O)N[C@@H](CCCNC(=N)N)C(=O)N[C@@H](CCCNC(=N)N)C(=O)N[C@@H](CCSC)C(=O)N[C@@H](CCCCN)C(=O)N[C@@H](Cc1c[nH]c2ccccc12)C(=O)N[C@@H](CCCCN)C(=O)N[C@@H](CCCCN)C(=O)O (H-QIKIWFQNRRMKWKK-OH) | 28 ± 2 | significantly higher | 70 ± 13 | 0.49 | 140 ± 40
CC(C)C[C@H](NC(=O)[C@H](CC(C)C)NC(=O)[C@H](CCCNC(=N)N)NC(=O)[C@@H](N)CC(C)C)C(=O)N[C@@H](CCCNC(=N)N)C(=O)N[C@@H](Cc1c[nH]c2ccccc12)C(N)=O [LRLLRW] (H-LRLLRW-NH2) | 9 ± 0.9 | significantly higher | – | 0.53 | 14 ± 2
CC(C)[C@H](NC(=O)[C@H](CCCCN)NC(=O)[C@H](CCCNC(=N)N)NC(=O)[C@H](CCCCN)NC(=O)[C@H](CCCCN)NC(=O)[C@H](CCCCN)NC(=O)[C@@H]1CCCN1C(=O)[C@H](CCC(N)=O)NC(=O)[C@H](CO)NC(=O)[C@H](Cc1c[nH]c2ccccc12)NC(=O)[C@H](CC(=O)O)NC(=O)[C@@H](NC(=O)[C@H](Cc1c[nH]c2ccccc12)NC(=O)[C@H](Cc1c[nH]c2ccccc12)NC(=O)[C@@H](NC(=O)[C@H](CC(=O)O)NC(=O)[C@H](Cc1c[nH]c2ccccc12)NC(=O)[C@H](Cc1c[nH]c2ccccc12)NC(=O)[C@@H](NC(=O)[C@H](CC(=O)O)NC(=O)[C@@H](N)CCCCN)[C@@H](C)O)[C@@H](C)O)[C@@H](C)O)C(=O)O [Pep‐1] (H-KDTWWDTWWTDWSQPKKKRKV-OH) | 22 ± 16 | significantly higher | 32 ± 14 | 0.67 | 4.5 ± 0.7
CC[C@H](C)[C@H](NC(=O)[C@H](CCCCN)NC(=O)[C@H](CCCCN)NC(=O)[C@H](C)NC(=O)[C@H](CC(C)C)NC(=O)[C@H](C)NC(=O)[C@H](C)NC(=O)[C@H](CC(C)C)NC(=O)[C@H](C)NC(=O)[C@H](CCCCN)NC(=O)[C@H](CC(C)C)NC(=O)[C@H](CC(N)=O)NC(=O)[C@@H](NC(=O)[C@H](CCCCN)NC(=O)CNC(=O)[C@H](CC(C)C)NC(=O)[C@H](CC(C)C)NC(=O)[C@H](Cc1ccc(O)cc1)NC(=O)CNC(=O)[C@H](C)N)[C@@H](C)CC)C(=O)N[C@@H](CC(C)C)C(=O)O [TP10] | 0.78 ± 0.09 | significantly higher membrane activity with the CF dye efflux assay | – | 0.88 | 1.7 ± 0.6
